These are literature values, as cited in patent publication US20110288042A1, “STABLE HIGHLY PURE AZACITIDINE AND PREPARATION METHODS THEREFOR” (CHEMAGIS LTD., priority 2007, published 2011).

For this data set the following is noted: reported; cited from earlier work.

For `O=c1ncccn1[C@@H]1O[C@H](CO)[C@@H](O)[C@H]1O` [zebularine], the “Stability in aqueous solution” value is “stable in aqueous solution”.
